PMC7215935, “GM1 Oligosaccharide Crosses the Human Blood–Brain Barrier In Vitro by a Paracellular Route” (International Journal of Molecular Sciences, 2020)

Assays:
[1] = Inverse transport (basolateral to apical, B → A) across hBLECs and efflux ratio; assay type: in vitro ADME, human; details: human, pH 7.4; 50 μM in basolateral compartment, 60 min (Figure 7)
Experimental: For the inverse transport study (related to basolateral → apical flux, B → A), 1.5 mL of 1 × 10^6 dpm of tritiated [^3H]OligoGM1 plus 50 μM OligoGM1 in RH buffer were added to an empty well of a 12-well plate (Figure S3c). Every 20 min up to 60 min, the hBLEC filter filled with 0.5 mL RH buffer was removed and replaced with a new filter with fresh RH buffer.
The apparent permeability, efflux ratio, and endothelial permeability were calculated to estimate the absorption processes of drugs, to predict implication of active transport in the process of drugs absorption, and to more accurately appreciate the transport of a drug across an endothelial barrier, respectively. Detailed information on the equations used to calculate the permeability parameters are reported in the Supplementary Information. […]
where (∆Q/∆t) (μmol/sec) is the rate of permeation (quantity per second) of a molecule across the cell layer, C0 (μmol/cm3) is the donor compartment concentration at time zero and S (cm2) is the area of […]
In the transwell insert system there are two compartments and, analyzing the absorption of a substance, the apparent permeability index can be obtained for the apical to basolateral transport, Papp A → B, and for the inverse, basolateral to apical transport Papp B → A.
To define Papp (1), the Fick's law could be used, which describes the transport of substances through a semipermeable membrane. Given that the initial concentration of the solute in the donor compartment is much higher than the one in the receiver compartment (equal to 0 at t0), and assuming that the solute equally partitions in the two compartments, for small variation of C0, it is possible to integrate and simplify the Fick’s equation to obtain as follows: […]
where ∆Q/∆t corresponds to the amount of solute that crosses the membrane over time, D is the diffusion coefficient of the substance in water, S is the membrane surface, h its thickness and C0 is the concentration of the solute which approximates the initial concentration C0.
The equation (2) can be rewritten as: […]

N2a cells = assay: N2a differentiation by hBLEC-crossed OligoGM1 (morphology); assay type: cell-based, mouse; details: basolateral solution (~25 μM), 24 h
Experimental: For differentiation experiments, N2a cells were seeded at 5 × 10^3/cm^2 and incubated for 24 h in regular culture condition to allow cell attachment. Before all treatments, growth medium was removed and cells were adapted for 30 min in pre-warmed (37 °C) Transfectagro medium containing 2% heat-inactivated FBS, 1% L-glutamine, and 1% penicillin/streptomycin solution. All treatments were conducted at 37 °C in a humidified atmosphere of 95% air/5% CO2.
Precisely, [^3H]OligoGM1 (1 × 10^6 dpm) diluted into cold OligoGM1 solution (300 µM) was administered for 240 min to hBLECs in the upper compartment so that at a volume of 0.5 mL there was 150 nmol of OligoGM1. […] After the 240 min incubation period, the basolateral solution was screened to find the quantity of crossed OligoGM1 by measuring ^3H-radioactivity and was then administered to N2a cells for 24 h. […] Morphological signals of neurodifferentiation were evaluated by cell observation and TrkA-ERK1/2 pathway activation was verified by immunoblotting (for procedural details see Supplementary Materials and [22, 23]). […]
Since mycoplasma could infect of Caco-2 cells, we validated the absence of any contamination by two methods (data not shown). […] Briefly culture supernatants were mixed with MycoAlert reagents according to manufacturer instruction and the luminescence was measured after 10 min using fluorimeter (BioTek, H1, Vermont, Winooski). […]

Papp B→A at 60 min, 50 μM [1]: 8.7 ± 1.4 ×10⁻⁶ cm/s
SMILES: CC(=O)NC1C(O)CC(OC2C(O)C(OC3C(CO)OC(O)C(O)C3O)OC(CO)C2OC2OC(CO)C(O)C(OC3OC(CO)C(O)C(O)C3O)C2NC(C)=O)(C(=O)O)OC1C(O)C(O)CO (stereo not drawn) [OligoGM1, β-Gal-(1-3)-β-GalNAc-(1-4)-[α-Neu5Ac-(2-3)]-β-Gal-(1-4)-β-Glc]
N2a cell morphology / neurite sprouting (N2a cells): induced a neuron-like morphology
